Measured values as given in US10125135B2, “Chemical compounds” (AstraZeneca AB, priority 2016, dated 2018).
≈ marks a conversion by molar mass, not a printed value.

How the values were obtained:
[1] = target: ERα receptor in MCF-7 human ductal carcinoma breast cell line (Homo sapiens (Human), UniProt P03372); test: MCF-7 ER down regulation assay (immuno-fluorescence); assay type: cell-based; details: MCF-7 cells, 18-22 hours incubation; read-out: ER down regulation IC50 value
[2] = target: estrogen receptor (ERα) in MCF-7 human breast cancer cell line (Homo sapiens (Human), UniProt P03372); test: Western blotting assay, MCF-7 cells; assay type: cell-based; details: 100 nM compound, 48 h; normalised to vehicle (0%) and 100 nM fulvestrant (100%)
Description: The ability of compounds to down-regulate estrogen receptor (ER) was assessed by western blotting using human breast cancer cell lines (MCF-7 and CAMA-1). Cells were plated into 12-well tissue culture-treated plates at 0.5×10^6/well in phenol red-free RPMI containing 2 mM L-glutamine and 5% (v/v) charcoal treated foetal calf serum (F6765, Sigma). Cells were incubated with compounds (100 nM) or vehicle control (0.1% DMSO) for 48 h at 37° C., 5% CO2 before washing once with PBS and lysing with 80 μl lysis buffer (25 mM Tris/HCl, 3 mM EDTA, 3 mM EGTA, 50 mM NaF, 2 mM sodium orthovanadate, 0.27 M sucrose, 10 mM β-glycerophosphate, 5 mM sodium pyrophosphate, 0.5% TritonX-100, pH 6.8) on ice.
Cells were scraped, sonicated and centrifuged prior to performing a protein assay (DC Bio-Rad Protein kit, 500-0116) and making samples to a protein concentration of 1-2 mg/m1 in lysis buffer containing 1× LDS Sample Buffer (NP0007, Invitrogen) and 1× NuPAGE sample reducing agent (NP0009, Invitrogen). Samples were boiled for 10 min at 95° C. and then frozen at −20° C. until ready for use.
10-20 μg protein was loaded onto 26-well Criterion gels (BioRad 345-0034). Gels were run at 125 V for 1 hr 25 min in running buffer (24 mM Tris Base Sigma, 192 mM Glycine, 3.5 mM SDS, made up in distilled water). Gels were then transferred at 30V for 2 hr in transfer buffer (25 mM Tris, 192 mM Glycine, 20% (v/v) methanol, pH 8.3, made up in distilled water) onto nitrocellulose membrane. The blot was stained with Ponceau S (P7170, Sigma) and cut according to appropriate molecular weight markers.
Membranes were blocked for 1 hour at room temp in 5% Marvel (w/v) in phosphate-buffered saline containing 0.05% Tween™ 20 (PBS/Tween). Blots were then incubated with anti-ERα (SP1) rabbit monoclonal antibody (Thermofisher) diluted 1:1000 at 4° C. overnight (with gentle shaking) followed by several washes with PBS/Tween. Secondary anti-rabbit HRP antibody (7074, CST) diluted 1:2000 dilution was incubated for 2 h at room temperature (with gentle shaking) followed by several washes with PBS/Tween. All antibodies were made up in 5% Marvel (w/v) in PBS/Tween.
The immunoblots were developed using Pierce WestDura chemiluminescent reagents (Thermo Scientific 34076) and developed/quantified on the G-box using Syngene software. Down-regulation of the ERα receptor was normalised to the vehicle control (0% down-regulation) and the 100 nM fulvestrant control (100% down-regulation) run within the same gel.

[3] = Thermodynamic solubility, shake-flask; assay type: physicochemical; details: thermodynamic from solid; aqueous phosphate buffer pH 7.4, 24 hours at 25° C.
Description: The thermodynamic solubility of a research compound is measured under standard conditions. It is a shake-flask approach that uses 10 mM DMSO solutions which are supplied from the Compound Managements liquid store and is a high throughput method. The dried compounds are equilibrated in an aqueous phosphate buffer (pH 7.4) for 24 hours at 25° C., the portion with the dissolved compound is then separated from the remains. The solutions are analyzed and quantified using UPLC/MS/MS, QC-samples are incorporated in each assay-run to ensure the quality of the assay.

Sequence of ERα receptor in MCF-7 human ductal carcinoma breast cell line (P03372 whole entry): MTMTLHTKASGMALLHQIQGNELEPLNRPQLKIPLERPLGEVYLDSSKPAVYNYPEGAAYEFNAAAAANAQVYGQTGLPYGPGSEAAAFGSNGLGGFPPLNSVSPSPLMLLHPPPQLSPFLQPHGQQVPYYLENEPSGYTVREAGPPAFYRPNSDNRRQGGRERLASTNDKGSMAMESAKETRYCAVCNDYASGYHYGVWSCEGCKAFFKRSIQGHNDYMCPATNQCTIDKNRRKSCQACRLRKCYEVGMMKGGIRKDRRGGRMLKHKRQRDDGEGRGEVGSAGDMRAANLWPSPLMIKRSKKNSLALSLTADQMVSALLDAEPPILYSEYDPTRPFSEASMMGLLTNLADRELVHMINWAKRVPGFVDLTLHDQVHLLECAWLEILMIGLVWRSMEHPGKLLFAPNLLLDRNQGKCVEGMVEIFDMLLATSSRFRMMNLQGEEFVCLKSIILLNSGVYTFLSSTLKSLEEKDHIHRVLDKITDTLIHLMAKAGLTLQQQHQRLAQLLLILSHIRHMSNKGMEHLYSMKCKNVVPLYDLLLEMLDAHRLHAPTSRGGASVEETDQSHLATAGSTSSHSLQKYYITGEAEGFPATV
Sequence of estrogen receptor (ERα) in MCF-7 human breast cancer cell line (P03372 whole entry): as above

COc1cc(OCCN2CC(CF)C2)ccc1[C@@H]1c2ccc3[nH]ncc3c2C[C@@H](C)N1CC1(F)CC1 [Example 6, (6S,8R)-7-((1-fluorocyclopropyl)methyl)-6-(4-(2-(3-(fluoromethyl)azetidin-1-yl)ethoxy)-2-methoxyphenyl)-8-methyl-6,7,8,9-tetrahydro-3H-pyrazolo[4,3-f]isoquinoline]
DC50 [1]: 0.13 nM | MCF7 Western % ER deg vs Fv [2]: 77% | solubility at 24 h [3]: 957 µM (≈ 475 µg/mL)

COc1cc(OCCN2CC(CF)C2)ccc1[C@@H]1c2ccc3[nH]ncc3c2C[C@@H](C)N1CC(C)(C)F [Example 5, (6S,8R)-7-(2-fluoro-2-methylpropyl)-6-(4-(2-(3-(fluoromethyl)azetidin-1-yl)ethoxy)-2-methoxyphenyl)-8-methyl-6,7,8,9-tetrahydro-3H-pyrazolo[4,3-f]isoquinoline]
DC50 [1]: 0.16 nM | MCF7 Western % ER deg vs Fv [2]: 69% | solubility at 24 h [3]: 263 µM (≈ 131 µg/mL)

C[C@@H]1Cc2c(ccc3[nH]ncc23)[C@@H](c2ccc(OCCN3CC(CF)C3)cn2)N1CC(F)(F)F [Example 49, (6S,8R)-6-(5-(2-(3-(fluoromethyl)azetidin-1-yl)ethoxy)pyridin-2-yl)-8-methyl-7-(2,2,2-trifluoroethyl)-6,7,8,9-tetrahydro-3H-pyrazolo[4,3-f]isoquinoline]
DC50 [1]: 0.21 nM | MCF7 Western % ER deg vs Fv [2]: 98% | solubility at 24 h [3]: > 1000 µM

C[C@@H]1Cc2c(ccc3[nH]ncc23)[C@@H](c2ccc(OCCN3CC(CF)C3)cn2)N1CC(F)F [Example 51, (6S,8R)-7-(2,2-difluoroethyl)-6-(5-(2-(3-(fluoromethyl)azetidin-1-yl)ethoxy)pyridin-2-yl)-8-methyl-6,7,8,9-tetrahydro-3H-pyrazolo[4,3-f]isoquinoline]
DC50 [1]: 0.54 nM | MCF7 Western % ER deg vs Fv [2]: 97% | solubility at 24 h [3]: 974 µM (≈ 448 µg/mL)

C[C@@H]1Cc2c(ccc3[nH]ncc23)[C@@H](c2ccc(OCCN3CC(CF)C3)cn2)N1CC1(F)CC1 [Example 8, (6S,8R)-7-((1-fluorocyclopropyl)methyl)-6-(5-(2-(3-(fluoromethyl)azetidin-1-yl)ethoxy)pyridin-2-yl)-8-methyl-6,7,8,9-tetrahydro-3H-pyrazolo[4,3-f]isoquinoline]
DC50 [1]: 0.39 nM | MCF7 Western % ER deg vs Fv [2]: 80% | solubility at 24 h [3]: > 1000 µM

COc1cc(OCCN2CC(CF)C2)ccc1[C@@H]1c2ccc3[nH]ncc3c2C[C@@H](C)N1CC(C)C [Example 9, (6S,8R)-6-(4-(2-(3-(fluoromethyl)azetidin-1-yl)ethoxy)-2-methoxyphenyl)-7-isobutyl-8-methyl-6,7,8,9-tetrahydro-3H-pyrazolo[4,3-f]isoquinoline]
DC50 [1]: 0.5 nM | MCF7 Western % ER deg vs Fv [2]: 97% | solubility at 24 h [3]: > 1000 µM
